Measured values published in patent US20220249463A1, “METHODS OF ALTERING CARDIAC REMODELING USING COMPOUNDS THAT PROMOTE GLUCOSE OXIDATION” (IMBRIA PHARMACEUTICALS, INC., priority 2019, published 2022).
Where “and” joins values, the source holds several entries; their conditions need not be identical. Equal values may be shown once.

Assays:
[1] = test system: Glutamate, NMDA, Agonism; format: binding, rat; conditions: 10 μM CV-8814
[2] = test system: ATPase, Na^+/K^+, pig heart; format: biochemical; conditions: 10 μM CV-8814
[3] = test system: Phosphodiesterase PDE3; format: biochemical, human; conditions: 10 μM CV-8814
[4] = test system: Calcium Channel L-Type, Dihydropyridine; format: binding, rat; conditions: 10 μM CV-8814
[5] = test system: Transporter, GABA; format: binding, rat; conditions: 10 μM CV-8814
[6] = test system: Calcium Channel L-Type, Benzothiazepine; format: binding, rat; conditions: 10 μM CV-8814
[7] = test system: Calcium Channel L-Type, Phenylalkylamine; format: binding, rat; conditions: 10 μM CV-8814
[8] = test system: Glutamate, Kainate; format: binding, rat; conditions: 10 μM CV-8814
[9] = test system: Glutamate, AMPA; format: binding, rat; conditions: 10 μM CV-8814
[10] = test system: TAC mice; experiment: TAC mice: echocardiography; format: in vivo
[11] = test system: TAC mice; experiment: TAC mice: left ventricular pressure with Mikro-tip catheter; format: in vivo; conditions: end of 6-week treatment; for left ventricular developed pressure (LVDP): TMZ 6, NA 2.4, CV-8814 7.5, CV-8972 10 mg/kg/day
[12] = molecular target: Potassium Channel [KATP] (Cricetus cricetus, UniProt Q09427); format: binding, hamster; conditions: 10 μM CV-8814
Potassium Channel [KATP], sequence (Q09427 whole entry): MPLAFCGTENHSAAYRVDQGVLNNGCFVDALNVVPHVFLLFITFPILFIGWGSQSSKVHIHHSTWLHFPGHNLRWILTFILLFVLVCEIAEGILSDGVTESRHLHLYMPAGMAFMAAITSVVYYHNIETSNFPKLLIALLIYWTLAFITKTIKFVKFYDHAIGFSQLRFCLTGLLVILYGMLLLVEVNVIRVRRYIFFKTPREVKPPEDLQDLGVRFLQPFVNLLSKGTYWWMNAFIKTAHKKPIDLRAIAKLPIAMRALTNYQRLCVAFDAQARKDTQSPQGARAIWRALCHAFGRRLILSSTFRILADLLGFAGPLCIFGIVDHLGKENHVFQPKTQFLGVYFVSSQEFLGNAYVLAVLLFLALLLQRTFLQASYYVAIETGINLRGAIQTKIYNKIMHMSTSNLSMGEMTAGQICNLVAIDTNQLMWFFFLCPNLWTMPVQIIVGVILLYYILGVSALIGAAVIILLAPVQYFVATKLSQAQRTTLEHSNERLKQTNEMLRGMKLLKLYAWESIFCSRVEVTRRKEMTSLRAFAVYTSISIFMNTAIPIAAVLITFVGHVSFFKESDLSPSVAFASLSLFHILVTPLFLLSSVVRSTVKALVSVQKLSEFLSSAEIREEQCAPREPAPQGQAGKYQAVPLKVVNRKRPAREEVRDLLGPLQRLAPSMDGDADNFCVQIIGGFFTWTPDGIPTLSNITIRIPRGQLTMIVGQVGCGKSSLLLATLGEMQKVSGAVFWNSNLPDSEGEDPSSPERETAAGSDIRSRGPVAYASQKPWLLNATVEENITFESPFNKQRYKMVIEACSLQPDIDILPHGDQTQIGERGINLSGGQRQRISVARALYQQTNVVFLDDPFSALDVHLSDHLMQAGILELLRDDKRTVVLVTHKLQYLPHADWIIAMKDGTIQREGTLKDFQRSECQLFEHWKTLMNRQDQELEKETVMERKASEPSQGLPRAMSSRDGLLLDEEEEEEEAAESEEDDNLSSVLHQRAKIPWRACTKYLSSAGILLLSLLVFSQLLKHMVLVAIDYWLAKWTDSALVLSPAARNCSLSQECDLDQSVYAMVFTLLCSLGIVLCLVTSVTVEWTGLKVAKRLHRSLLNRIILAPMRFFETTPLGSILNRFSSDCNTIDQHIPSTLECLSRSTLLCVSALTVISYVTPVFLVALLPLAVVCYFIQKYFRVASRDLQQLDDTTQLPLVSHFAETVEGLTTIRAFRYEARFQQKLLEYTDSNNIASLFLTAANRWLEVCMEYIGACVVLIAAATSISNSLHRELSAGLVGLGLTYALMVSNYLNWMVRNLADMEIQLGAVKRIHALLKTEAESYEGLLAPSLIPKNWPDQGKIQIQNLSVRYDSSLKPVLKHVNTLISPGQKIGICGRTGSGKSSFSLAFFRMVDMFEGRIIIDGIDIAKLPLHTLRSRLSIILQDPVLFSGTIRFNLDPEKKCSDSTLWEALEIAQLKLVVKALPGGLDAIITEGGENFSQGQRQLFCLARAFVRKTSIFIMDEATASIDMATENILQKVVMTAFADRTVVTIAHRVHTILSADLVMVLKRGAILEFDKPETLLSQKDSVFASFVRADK

[13] = test system: GABAA, Ro-15-1788, Hippocampus; format: binding, rat; conditions: 10 μM CV-8814
[14] = test system: Glutamate, NMDA, Phencyclidine; format: binding, rat; conditions: 10 μM CV-8814
[15] = test system: Glycine, Strychnine-Sensitive; format: binding, rat; conditions: 10 μM CV-8814
[16] = test system: GABAA, Chloride Channel, TBOB; format: binding, rat; conditions: 10 μM CV-8814
[17] = test system: TAC mice; experiment: TAC mice, six weeks treatment: heart weight and heart weight/body weight; format: in vivo; conditions: 6 weeks; for cardiac mass: TMZ 6, CV-8814 7.5, CV-8972 10 mg/kg/day, osmotic minipump
[18] = test system: Nicotinic Acetylcholine; format: binding, human; conditions: 10 μM CV-8814
[19] = test system: Transporter, Adenosine; format: binding, guinea pig; conditions: 10 μM CV-8814
[20] = test system: Sodium Channel, Site 2; format: binding, rat; conditions: 10 μM CV-8814
[21] = test system: GABAA, Flunitrazepam, Central; format: binding, rat; conditions: 10 μM CV-8814
[22] = test system: Phosphodiesterase PDE4; format: biochemical, human; conditions: 10 μM CV-8814
[23] = test system: Protein Serine/Threonine Kinase, PKC, Non-selective; format: biochemical, rat; conditions: 10 μM CV-8814
[24] = test system: Glutamate, NMDA, Polyamine; format: binding, rat; conditions: 10 μM CV-8814
[25] = test system: TAC mice; experiment: TAC mice: cardiac fibrosis, Masson's trichrome; format: in vivo; conditions: end of 6-week experiment
[26] = test system: isolated hearts after ischemia-reperfusion; experiment: Ischemia-reperfusion (IR): infarct size by TTC staining; format: in vivo, mice
Method: FIG. 38 is a schematic of the ischemia-reperfusion (IR) method used to analyze the effects of selected compositions on coronary flow, cardiac function, and infarct size. […] At 20 minutes, ischemia was induced, and coronary flow was analyzed. At 50 minutes, reperfusion was initiated to restore blood flow. At 170 minutes, coronary flow and cardiac function was analyzed, and then the hearts were preserved, sectioned, and infarct size was measured by triphenyltetrazolium chloride (TTC) staining. […] FIG. 42 is graph of infarct size after IR.

[27] = test system: isolated hearts after ischemia-reperfusion; experiment: Ischemia-reperfusion (IR): coronary flow; format: in vivo, mice; conditions: TMZ 20 μM, TNF 2 μM each, TNS 20 μM each, individual hearts, MEAN = group mean; for CF20: coronary flow at 20 minutes; for CF170: coronary flow at 170 minutes, after IR; for CF170/CF20: ratio of flow at 170 minutes to flow at 20 minutes
Method: FIG. 38 is a schematic of the ischemia-reperfusion (IR) method used to analyze the effects of selected compositions on coronary flow, cardiac function, and infarct size. […] At 20 minutes, ischemia was induced, and coronary flow was analyzed. At 50 minutes, reperfusion was initiated to restore blood flow. At 170 minutes, coronary flow and cardiac function was analyzed, and then the hearts were preserved, sectioned, and infarct size was measured by triphenyltetrazolium chloride (TTC) staining. FIG. 39 is a graph of coronary flow of after IR.

[28] = test system: isolated hearts after ischemia-reperfusion; experiment: Ischemia-reperfusion (IR): cardiac function (left ventricular pressure); design: species or system mice; conditions: for left ventricular developed pressure (LVDP), Mean: Table 6 group mean; for HR / LVDP / LVDPxHR / LVEDP / LVESP: individual hearts, MEAN = group mean
Method: FIG. 38 is a schematic of the ischemia-reperfusion (IR) method used to analyze the effects of selected compositions on coronary flow, cardiac function, and infarct size. […] At 20 minutes, ischemia was induced, and coronary flow was analyzed. At 50 minutes, reperfusion was initiated to restore blood flow. At 170 minutes, coronary flow and cardiac function was analyzed, and then the hearts were preserved, sectioned, and infarct size was measured by triphenyltetrazolium chloride (TTC) staining. FIG. 40 is graph of left ventricular developed pressure (LVDP) after IR.

[29] = TMZ 6, NA 2.4, CV-8814 7.5, CV-8972 10 mg/kg/day
[30] = TMZ 20 μM, TNF 2 μM each, TNS 20 μM each

COc1ccc(CN2CCN(CCO)CC2)c(OC)c1OC [CV-8814, 2-(4-(2,3,4-trimethoxybenzyl)piperazin-1-yl)ethan-1-ol]
Inhibition [1]: < 50%
Inhibition [2]: < 50%
Inhibition [3]: < 50%
Inhibition [4]: < 50%
Inhibition [5]: < 50%
Inhibition [6]: < 50%
Inhibition [7]: < 50%
Inhibition [8]: < 50%
Inhibition [9]: < 50%
EF (in words) ([10]; 3-weeks after TAC): significantly increased
IVRT ([10]; 3-weeks after TAC): 33 ± 1 ms
IVSd ([10]; 3-weeks after TAC): 1.27±0.02 mm
LV mass ([10]; 3-weeks after TAC): 152 ± 9 mg
left ventricular FS ([10]; 3-weeks after TAC, CV-8814 7.5, CV-8972 10 mg/kg/day): 46%±2%
IVRT ([10]; 6-weeks after TAC): 28 ± 2 ms
IVSd ([10]; 6-weeks after TAC): 1.26±0.04 mm
left ventricular FS ([10]; 6-weeks after TAC (end of the experiment)): 44%±3%
cardiac functions in TAC mice (in words) ([10]; conclusion, 6 weeks treatment): improved cardiac functions
EF (in words) ([10]; to the end of the study (6 weeks)): protective effect was sustained to the end of the study
+dp/dtm [11]: 4572±268 mm Hg/sec
left ventricular developed pressure (LVDP) [11]: 123±8 mm Hg
inhibition at 10 µM [12]: < 50%
Inhibition [13]: < 50%
Inhibition [14]: < 50%
Inhibition [15]: < 50%
Inhibition [16]: < 50%
cardiac remodeling in TAC mice (in words) [17, 29]: effectively inhibited cardiac remodeling
cardiac mass ([17]; TAC mice): 227 ± 12 mg
heart weight to body weight ratio ([17]; TAC mice, TMZ 6, NA 2.4, CV-8814 7.5, CV-8972 10 mg/kg/day, subcutaneous osmotic minipump): 7.6 ± 0.4 mg/g
Inhibition [18]: < 50%
Inhibition [19]: < 50%
Inhibition [20]: < 50%
Inhibition [21]: < 50%
Inhibition [22]: < 50%
Inhibition [23]: < 50%
Inhibition [24]: < 50%

O=C(O)c1cccnc1 [NA, nicotinic acid, reference compound]
cardiac fibrosis (fibrotic area to whole heart tissue area) [25]: 8.2±1%
IVRT ([10]; 6-weeks after TAC): 29 ± 2 ms
IVSd (in words) ([10]; TAC mice, NA 2.4 mg/kg/day): decreased IVSd
LV mass (in words) ([10]; TAC mice, NA 2.4 mg/kg/day): no effect on LV mass
left ventricular developed pressure (LVDP) [11]: 141±20 mm Hg
cardiac remodeling in TAC mice (in words) [17, 29]: no significant effect on cardiac remodeling

COc1ccc(CN2CCNCC2)c(OC)c1OC [TMZ, trimetazidine]
infarct size after IR (in words) [26, 30]: decreased infarct size
IS/LV ([26]; individual isolated hearts after ischemia-reperfusion): 58% and 49% (2×) and 44% and 71% and 64% and 68% and 60% and 43% and 51%
IS/LV Mean ([26]; mean of 10 hearts of the group): 56%
cardiac fibrosis (fibrotic area to whole heart tissue area) [25]: 7.6±1%
LV mass ([10]; 3-weeks after TAC): 153 ± 8 mg
IVRT ([10]; 6-weeks after TAC): 36 ± 1 ms
LV mass ([10]; 6-weeks after TAC): 176 ± 15 mg
+dp/dtm [11]: 5157±615 mm Hg/sec
left ventricular developed pressure (LVDP) [11]: 137±10 mm Hg
CF20 [27]: 2.13 mL/min and 1.7 mL/min and 2.18 mL/min and 3.83 mL/min and 1.72 mL/min and 2.4 mL/min and 2.14 mL/min and 2.03 mL/min
CF20 ([27]; mean): 2.27 mL/min
CF170 [27]: 0.0516 mL/min and 0.1 mL/min and 0.0778 mL/min and 0.129 mL/min and 0.0898 mL/min and 0.0656 mL/min and 0.0556 mL/min and 0.13 mL/min
CF170 ([27]; mean): 0.0874 mL/min
CF170/CF20 [27]: 2.42E+01 μl/ml and 5.87E+01 μl/ml and 3.57E+01 μl/ml and 3.37E+01 μl/ml and 5.21E+01 μl/ml and 2.73E+01 μl/ml and 2.60E+01 μl/ml and 6.39E+01 μl/ml
CF170/CF20 ([27]; mean): 4.02E+01 μl/ml
cardiac remodeling in TAC mice (in words) [17, 29]: effectively inhibited cardiac remodeling
cardiac mass ([17]; TAC mice): 224 ± 12 mg
left ventricular developed pressure (LVDP), Mean ([28]; T20 (20 minutes)): 55.86
left ventricular developed pressure (LVDP), Mean ([28]; T170 (170 minutes, after IR)): 48.91
cardiac function after IR (in words) [28, 30]: prevented a decline in cardiac function
HR ([28]; after 2h reperfusion): 1.18E+02 and 1.19E+02 and 1.01E+02 and 1.51E+02 and 6.70E+01 and 9.22E+01 and 2.22E+02 and 1.70E+02 and 1.16E+02 and 2.38E+02
LVDP ([28]; after 2h reperfusion): 2.14E+01 and 4.34E+01 and 5.22E+01 and 2.97E+01 and 4.84E+01 and 4.67E+01 and 4.10E+01 and 7.65E+01 and 5.53E+01 and 7.43E+01
LVDPxHR ([28]; after 2h reperfusion): 2.52E+03 and 5.15E+03 and 5.28E+03 and 4.49E+03 and 3.24E+03 and 4.31E+03 and 9.11E+03 and 1.30E+04 and 6.44E+03 and 1.77E+04
LVEDP ([28]; after 2h reperfusion): 2.93E+01 and 3.31E+01 and 3.96E+01 and 1.80E+01 and 3.36E+00 and 1.87E+00 and 1.99E+01 and 3.21E+01 and 1.84E+01 and 1.77E+00
LVESP ([28]; after 2h reperfusion): 5.07E+01 and 7.66E+01 and 9.19E+01 and 4.77E+01 and 5.18E+01 and 4.86E+01 and 6.09E+01 and 1.09E+02 and 7.38E+01 and 7.61E+01
HR ([28]; after 2h reperfusion, mean): 1.39E+02
LVDP ([28]; after 2h reperfusion, mean): 4.89E+01
LVDPxHR ([28]; after 2h reperfusion, mean): 6.82E+03
LVEDP ([28]; after 2h reperfusion, mean): 1.97E+01
LVESP ([28]; after 2h reperfusion, mean): 6.86E+01
LVESP ([28]; pre-ischemia, TMZ 20 μM, TNF 2 μM each, TNS 20 μM each): 7.58E+01 and 8.44E+01 and 7.15E+01 and 5.47E+01 and 6.87E+01 and 4.27E+01 and 3.30E+01 (2×) and 6.60E+01 and 7.38E+01
LVESP ([28]; pre-ischemia, TMZ 20 μM, TNF 2 μM each, TNS 20 μM each, mean): 6.03E+01
HR ([28]; pre-ischemia): 2.63E+02 and 2.93E+02 and 1.66E+02 and 3.35E+02 and 3.58E+02 and 3.33E+02 and 3.48E+02 and 3.21E+02 and 2.67E+02 and 3.32E+02
LVDP ([28]; pre-ischemia): 6.93E+01 and 7.90E+01 and 6.48E+01 and 5.30E+01 and 6.51E+01 and 3.80E+01 and 2.82E+01 and 3.15E+01 and 5.87E+01 and 7.11E+01
LVDPxHR ([28]; pre-ischemia): 1.83E+04 and 2.31E+04 and 1.08E+04 and 1.77E+04 and 2.33E+04 and 1.26E+04 and 9.82E+03 and 1.01E+04 and 1.57E+04 and 2.36E+04
LVEDP ([28]; pre-ischemia): 6.53E+00 and 5.43E+00 and 6.76E+00 and 1.74E+00 and 3.58E+00 and 4.71E+00 and 4.77E+00 and 1.46E+00 and 7.25E+00 and 2.70E+00
HR ([28]; pre-ischemia, mean): 3.02E+02
LVDP ([28]; pre-ischemia, mean): 5.59E+01
LVDPxHR ([28]; pre-ischemia, mean): 1.68E+04
LVEDP ([28]; pre-ischemia, mean): 4.49E+00
